A short description of data set [1]: Microsome stability evaluation in rat liver microsomes. The class given is in vitro ADME. As to conditions: read-out: Rat microsome, t½. From the text:
Example A6: Microsome Stability Evaluation in Human and Rat Liver Microsomes
(In general: Liver microsomes are vesicles of endoplasmic reticulum, rich in cytochrome P450 enzymes.)

For the next data set, the target named is T1, CYP2C19 (Homo sapiens, UniProt P33261).
T1 construct: from tissue; host or cells: human liver microsomes
Kind of data set: CYP inhibition evaluation in human liver microsomes. The class given is in vitro ADME. The source says:
(§1) Example A5: CYP Inhibition Evaluation in Human Liver Microsomes

For a further data set, the target named is T2, CYP2C8 (Homo sapiens, UniProt P10632).
T2 construct: from tissue; host or cells: human liver microsomes
T2 sequence (P10632 1-490): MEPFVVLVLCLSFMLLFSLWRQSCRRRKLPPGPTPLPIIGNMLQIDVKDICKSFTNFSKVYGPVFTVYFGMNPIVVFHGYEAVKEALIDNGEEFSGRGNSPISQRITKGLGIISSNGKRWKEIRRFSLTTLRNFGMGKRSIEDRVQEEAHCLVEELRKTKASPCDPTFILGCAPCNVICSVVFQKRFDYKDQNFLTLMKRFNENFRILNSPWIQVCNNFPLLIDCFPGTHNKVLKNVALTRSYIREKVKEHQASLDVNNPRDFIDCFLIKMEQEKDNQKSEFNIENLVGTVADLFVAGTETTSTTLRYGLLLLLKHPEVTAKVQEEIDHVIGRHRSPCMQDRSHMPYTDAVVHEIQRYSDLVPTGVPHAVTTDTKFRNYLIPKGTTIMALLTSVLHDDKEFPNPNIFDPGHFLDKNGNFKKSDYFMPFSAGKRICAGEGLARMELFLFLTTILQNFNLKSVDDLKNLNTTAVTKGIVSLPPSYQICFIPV
Described as above. The class given is in vitro ADME.
From the text: as §1

The target of the next data set is T3, CYP3A4-M (Homo sapiens, UniProt P08684).
T3 construct: from tissue; host or cells: human liver microsomes
The data set is described as above. The class given is in vitro ADME.
From the text: as §1

Another data set deals with T4, CYP2D6 (Homo sapiens, UniProt P10635).
T4 construct: from tissue; host or cells: human liver microsomes
The data set is described as above. The data set is classed as in vitro ADME.
From the text: as §1

For another data set, the target named is T5, CYP2C9 (Homo sapiens, UniProt P11712).
T5 construct: from tissue; host or cells: human liver microsomes
The description is as above. The class given is in vitro ADME.
From the text: as §1

The next data set has as its target T6, CYP1A2 (Homo sapiens, UniProt P05177).
T6 construct: from tissue; host or cells: human liver microsomes
T6 sequence (P05177 1-516): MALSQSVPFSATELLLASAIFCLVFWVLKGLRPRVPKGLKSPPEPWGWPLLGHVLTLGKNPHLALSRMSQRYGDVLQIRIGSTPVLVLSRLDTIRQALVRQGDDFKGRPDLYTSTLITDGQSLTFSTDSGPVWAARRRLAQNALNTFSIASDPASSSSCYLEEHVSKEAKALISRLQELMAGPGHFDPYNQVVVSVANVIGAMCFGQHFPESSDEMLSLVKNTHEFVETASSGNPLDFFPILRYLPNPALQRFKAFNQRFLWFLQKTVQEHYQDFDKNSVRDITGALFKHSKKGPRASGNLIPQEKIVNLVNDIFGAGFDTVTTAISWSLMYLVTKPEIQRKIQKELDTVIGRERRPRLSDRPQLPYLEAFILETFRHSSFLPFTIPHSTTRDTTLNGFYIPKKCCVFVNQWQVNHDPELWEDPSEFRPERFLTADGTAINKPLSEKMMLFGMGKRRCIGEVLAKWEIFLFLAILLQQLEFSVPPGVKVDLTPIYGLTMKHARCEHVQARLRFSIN
Described as above. The class given is in vitro ADME.
From the text: as §1

In data set [2] the test system is sickled HbSS whole blood (RBC sickling). The data set is described as follows: Anti-sickling assay in HbSS sickled blood under hypoxic induction. The data set is classed as cell-based, human. Conditions: HbSS whole blood 26% Hct, 20 mins hypoxic induction; 0.2 mM compounds (FIG. 2). How it is done: Materials: • Blood collected after informed consent from sickle cell individuals. • HBS buffer: 10 mM HEPES, 145 mM NaCl, pH 7.4 • Hemox buffer: Buffer provided for the hemox analyzer • Control Compound stock solution in DMSO (50 mM) stored at RT • Control Compound work solution (CWS): 10 μl of DMSO was added by Hamilton to 90 μl of HBS buffer (20 mM Hepes, 145 mM NaCl, pH 7.4) to create a working solution with a final concentration of 5 mM drug and 10% DMSO). • Compound stock solution in DMSO (50 mM) stored at RT • Compound work solution (WS): 10 μl of DMSO was added by Hamilton to 90 μl of HBS buffer (20 mM Hepes, 145 mM NaCl, pH 7.4) to create a working solution with a final concentration of 5 mM drug and 10% DMSO). • DMSO buffer: 10% DMSO (DB), same as WS but without drug. This will be used to maintain DMSO the same for different drug incubations. Test Protocol:
Collect blood from Clinic: Blood were collected after informed consent according to an approved IRB protocol. • Run Advia 120 analysis on SCD blood, to determine Hct. • Dilute blood to 20% Hct with HBS to total volume of 3 ml. • This cell suspension (CS) will be used for all experiments.
Incubation • 1. 200 μl CS • 2. 200 μl CS+20 μl CWS (5 mM diluted 10 times=0.5 mM control final)−(1% DMSO) • 3. 200 μl CS+20 μl WS (5 mM diluted 10 times=0.5 mM control final)−(1% DMSO) • 4. 200 μl CS+8 μl WS (0.2 mM drug final)+DB−(1% DMSO) • Incubate 30 minutes at 37° C.
50 μl into 1 ml HBS+2% BSA buffer. Eight time points (0-20 minutes) at 2% oxygen, 10,000 events each)
The sickling runs provide sets samples that need to be run on the AMNIS image flow and are subsequently analyzed with pixel analysis software.
Drug was provided at 50 mM concentration in DMSO, and stored at room temperature until use. 10 μl of DMSO was added by Hamilton to 90 μl of HBS buffer (20 mM Hepes, 145 mM NaCl, pH 7.4) to create a working solution with a final concentration of 5 mM drug and 10% DMSO). Blood was collected from a sickle cell patient in EDTA anticoagulant. To 200 μl of whole blood, a 20 or 8 μl of working solution was added resulting in a final drug concentration of 0.5 mM or 0.2 mM respectively. The DMSO concentration in both was corrected to 1%. The final hematocrit was measured by ADVIA analysis to be 26%. […] The delta hemox (%) comparing Example 29e with GBT440 is shown in FIG. 1A (0.2 mM) and FIG. 1B (0.5 mM).
Anti-sickling is shown in FIG. 2 with M: maximum percentage of sickled cells during 20 mins of hypoxic induction, T: time needed to reach 50% of M, and Z: baseline percentage of sickled cells prior to hypoxic induction.

T1 sequence (P33261 whole entry): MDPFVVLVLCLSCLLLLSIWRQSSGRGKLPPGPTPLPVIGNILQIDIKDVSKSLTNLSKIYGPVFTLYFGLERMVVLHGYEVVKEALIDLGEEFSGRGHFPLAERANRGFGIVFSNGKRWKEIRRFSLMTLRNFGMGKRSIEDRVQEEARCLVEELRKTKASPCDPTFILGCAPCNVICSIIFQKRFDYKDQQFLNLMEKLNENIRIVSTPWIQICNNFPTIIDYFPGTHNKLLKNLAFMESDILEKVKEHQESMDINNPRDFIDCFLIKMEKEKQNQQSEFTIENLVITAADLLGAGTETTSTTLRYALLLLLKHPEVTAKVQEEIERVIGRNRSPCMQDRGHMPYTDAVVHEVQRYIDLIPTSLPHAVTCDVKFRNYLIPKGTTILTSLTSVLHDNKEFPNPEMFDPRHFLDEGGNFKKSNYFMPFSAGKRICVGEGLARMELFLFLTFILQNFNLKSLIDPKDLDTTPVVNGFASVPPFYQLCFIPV
T5 sequence (P11712 whole entry): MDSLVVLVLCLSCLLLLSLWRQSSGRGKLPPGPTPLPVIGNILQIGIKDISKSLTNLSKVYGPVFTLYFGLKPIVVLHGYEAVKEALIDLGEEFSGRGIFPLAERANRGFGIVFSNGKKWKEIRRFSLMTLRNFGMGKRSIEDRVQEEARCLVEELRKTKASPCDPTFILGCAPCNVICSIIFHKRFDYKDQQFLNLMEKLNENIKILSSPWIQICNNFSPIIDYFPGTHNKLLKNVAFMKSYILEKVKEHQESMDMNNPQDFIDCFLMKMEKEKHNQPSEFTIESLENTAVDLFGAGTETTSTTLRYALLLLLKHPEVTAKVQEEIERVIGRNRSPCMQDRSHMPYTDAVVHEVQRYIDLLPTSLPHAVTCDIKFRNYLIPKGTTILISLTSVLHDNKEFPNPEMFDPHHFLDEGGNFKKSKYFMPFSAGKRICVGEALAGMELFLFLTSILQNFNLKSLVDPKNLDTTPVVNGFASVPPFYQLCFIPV
T4 sequence (P10635 whole entry): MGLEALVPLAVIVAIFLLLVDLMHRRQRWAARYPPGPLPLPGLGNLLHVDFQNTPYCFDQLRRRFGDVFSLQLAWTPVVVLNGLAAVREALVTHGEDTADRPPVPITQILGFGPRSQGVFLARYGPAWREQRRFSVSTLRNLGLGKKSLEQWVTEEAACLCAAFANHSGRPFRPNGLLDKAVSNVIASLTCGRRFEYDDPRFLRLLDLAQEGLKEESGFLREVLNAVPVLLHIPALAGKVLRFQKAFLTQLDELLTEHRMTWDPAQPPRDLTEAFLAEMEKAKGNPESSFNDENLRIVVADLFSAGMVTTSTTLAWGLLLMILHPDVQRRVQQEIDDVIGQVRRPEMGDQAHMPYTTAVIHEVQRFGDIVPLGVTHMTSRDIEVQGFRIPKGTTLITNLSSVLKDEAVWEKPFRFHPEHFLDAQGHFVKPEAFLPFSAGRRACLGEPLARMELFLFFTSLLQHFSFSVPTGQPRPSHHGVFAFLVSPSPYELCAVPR
T3 sequence (P08684 whole entry): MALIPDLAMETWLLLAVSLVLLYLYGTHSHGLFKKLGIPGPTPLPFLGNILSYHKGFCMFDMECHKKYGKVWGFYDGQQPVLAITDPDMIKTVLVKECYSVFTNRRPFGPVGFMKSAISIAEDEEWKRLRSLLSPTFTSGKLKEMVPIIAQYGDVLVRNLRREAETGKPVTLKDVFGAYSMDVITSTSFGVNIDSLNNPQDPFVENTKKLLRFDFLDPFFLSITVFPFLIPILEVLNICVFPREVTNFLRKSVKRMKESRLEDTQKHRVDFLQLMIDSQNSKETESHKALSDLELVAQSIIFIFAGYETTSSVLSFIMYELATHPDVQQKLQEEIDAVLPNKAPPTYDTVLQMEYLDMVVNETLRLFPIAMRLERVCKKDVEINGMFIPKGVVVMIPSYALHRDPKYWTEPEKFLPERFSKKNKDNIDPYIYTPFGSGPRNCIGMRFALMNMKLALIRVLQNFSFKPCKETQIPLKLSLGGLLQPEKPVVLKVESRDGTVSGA

Consider `[2H]C([2H])(Oc1cccc(O)c1C=O)c1cncnc1-c1ccnn1C(C)C` [Example 38, 2-hydroxy-6-((4-(1-isopropyl-1H-pyrazol-5-yl)pyrimidin-5-yl)methoxy-d2)benzaldehyde], for which the half-life in data set [1] worked out at 18 min. Further, the IC50 against CYP2C19 was 8.61 µM; against CYP2C8, 25.2 µM; against CYP3A4-M, over 30 µM; at CYP2D6 it was over 30 µM; against CYP2C9, 10.6 µM; against CYP1A2, over 30 µM. Besides, the “Reduction in % sickled cells compared to untreated” value in data set [2] is on record as −30.6%.

What is called IC50 is the point on the concentration scale where inhibition reaches its midpoint. Lower therefore signals higher potency.

For the origin of these results see patent US10787430B2, “Hemoglobin modifier compounds and uses thereof” (FronThera U.S. Pharmaceuticals LLC, priority 2016, dated 2020).
